Experimental data as given in patent publication EP1437348A1, “6-methyl-2,4-diamino-pyrimidine derivatives, process for preparation, compositions containing them and their uses as basic neutralising agents” (L'OREAL, priority 2003, dated 2004).
In brackets after ≈: the same amount, converted by molar mass. Like-named read-outs stand apart in the source and are kept apart here.

Tests used:
Pseudomonas aeruginosa [1] = assay: Minimal inhibitory concentration (CMI), Alamar Blue broth method; format: cell-based; details: ATCC9027, ATCC #9027, lowest concentration with growth inhibition ≥ 90%, 16 h contact at 37°C, read-out: CMI P.aeruginosa
Excerpt: (§1) La méthode de détermination de l'activité anti-microbienne des composés selon l'invention fait intervenir la mesure de la Concentration Minimale Inhibitrice (CMI) vis-à-vis de 2 bactéries gram- (E. coli et P. aeruginosa), d'une bactérie gram+ (S. aureus) et d'une levure (C. albicans). Cette méthode a été effectuée selon la méthode décrite dans les articles suivants: - Baker C.N., Banerjee S.N. and Tenover F.C. : Evaluation of Alamar colorimetric MIC Method for antimicrobial susceptibility testing of gram-negative bacteria. J. Clin. Microbiol. (1994), 32, 1261-1267; - Baker C.N. and Tenover F.C. : Evaluation of Alamar colorimetric broth microdilution susceptibility testing method for staphylococci and enterococci. J. Clin. Microbiol. (1996), 34, 2654-2659. Les souches bactériennes utilisées au départ sous forme de disques lyophilisés calibrés sont réhydratées en suivant les indications du fournisseur (Fisher Scientific S.A.)
(§2) Les souches sont ensemencées dans du milieu Trypto-caseine-soja. La mise en contact du composé à tester solubilisé dans l'eau, avec les souches en phase de croissance s'effectue en milieu liquide. Après 16 heures de contact du composé avec les bactéries (37°C), de l'Alamar Blue est ajouté comme indicateur métabolique de la viabilité de cellules variées et de bactéries. La réduction de l'indication est proportionnelle à l'activité métabolique des bactéries. A l'issue de l'incubation d'une durée de 2h (sauf pour C. albicans pour laquelle l'incubation est de 4h), l'activité métabolique des bactéries est évaluée par une lecture en absorbance ou en fluorescence. En fluorescence, les lectures sont réalisées à 544nm (Excitation) et à 590nm (Emission). Les composés les plus actifs sont sélectionnés et un effet dose (8 concentrations) est ensuite réalisé comme précédemment. La Concentration Minimale Inhibitrice (C.M.I.) a alors été déterminée comme étant la concentration la plus faible du composé testé pour laquelle était observée une inhibition de croissance de la bactérie ou de la levure ≥ 90%.

Candida albicans [2] = assay: as above; format: cell-based; details: ATCC10231, ATCC #10231, lowest concentration with growth inhibition ≥ 90%, 16 h contact at 37°C
Excerpt: as §1, §2

Escherichia coli [3] = assay: as above; format: cell-based; details: ATCC8739, ATCC #8739, lowest concentration with growth inhibition ≥ 90%, 16 h contact at 37°C, read-out: CMI E.coli
Excerpt: as §1, §2

Staphylococcus aureus = assay: as above; format: cell-based; details: ATCC6538, ATCC #6538, lowest concentration with growth inhibition ≥ 90%, 16 h contact at 37°C, read-out: CMI S.aureus
Excerpt: as §1, §2

[4] = Ionisation constants by potentiometric titration; format: physicochemical; details: read-out: pKa expérimental
Experimental: Les constantes d'ionisation sont déterminées expérimentalement par titrage potentiométrique suivant les conditions opératoires décrites ci-dessous et évaluées par le logiciel de prédiction ACD/pK DB, Version 5.12.
Conditions opératoires du titrage potentiométrique • Matériel utilisé : (Radiometer-Tacussel) : • titrateur TIM 900 • passeur d'échantillons SAC 90 • logiciel Tim Talk 9 • - Prise d'essai : 10^-4 mole • - Mise en solution : (solubilisation avec passeur d'échantillons) • 5 ml du mélange DMSO 70 / Ethanol 10 / Eau 20 (agitation 3 minutes avec barbotage d'azote) • 10 ml d'une solution de NaCl 0.225M dans eau 80 / DMSO 20 (agitation 3 minutes avec barbotage d'azote) • - Méthode de titrage : • Etalonnage de l'électrode entre pH4 et pH10 • Titrage direct par NaOH 1N ou après ajout d'HCl 1N • Détection d'inflexion avec ajout continu du titrant • vitesse d'addition mini : 1%/min • vitesse d'addition maxi : 1%/min • Flux d'azote à la surface de la solution pendant le titrage • - Calculs : • 2 fonctions polynomiales sont utilisées pour obtenir le pKa dans l'eau en milieu NaCl 0.15M : • pour les fonctions acides : pKaH2O = -0,0208(pKasolvant)^2 + 1,257pKasolvant - 1,6 • pour les fonctions basiques :pKaH2O = -0,0208(pKasolvant)^2 + 1,257pKasolvant - 0,75

Pseudomonas aeruginosa [5] = assay: Challenge test (artificial contamination) in cosmetic supports; format: cell-based; details: inoculum about 10^6 germes/gramme, sensitivity threshold 200 UFC
Excerpt: (§3) La mesure de la Concentration Minimale Inhibitrice (C.M.I.) développée ci-dessus ne peut être utilisée avec fiabilité pour les moisissures; or les moisissures peuvent également poser de graves problèmes dans la conservation des produits cosmétiques. En sachant que l'activité d'un composé diminue lorsqu'il est introduit dans une formule et que la méthode de la CMI se fait après dilution du composé dans l'eau, l'efficacité anti-microbienne des composés de formule (I) a été évaluée par la méthode du Challenge Test ou contamination artificielle après avoir introduit lesdits composés dans des supports cosmétiques (lotion, émulsions huile-dans-eau et eau-dans-huile). La méthode du challenge-test consiste en une contamination artificielle de l'échantillon par des souches microbiennes de collection (bactéries, levures et moisissures) et en une évaluation du nombre de micro-organismes revivifiables sept jours après l'inoculation. Afin de mettre en évidence l'effet d'un composé de formule (I), l'activité anti-microbienne d'une formule cosmétique contenant 0.25% de 4 methyl-pipéridine-1-yl-pyrimidine-2-ylamine a été comparée avec la même formule seule, après inoculation d'environ 10^6 germes/gramme de produit cosmétique.

Candida albicans [6] = assay: as above; format: cell-based; details: inoculum about 10^6 germes/gramme, sensitivity threshold 200 UFC
Excerpt: as §3

Aspergillus niger = assay: as above; format: cell-based; details: inoculum about 10^6 germes/gramme, sensitivity threshold 200 UFC
Excerpt: as §3

Escherichia coli [7] = assay: as above; format: cell-based; details: inoculum about 10^6 germes/gramme, sensitivity threshold 200 UFC
Excerpt: as §3

Enterococcus faecalis = assay: as above; format: cell-based; details: inoculum about 10^6 germes/gramme, sensitivity threshold 200 UFC
Excerpt: as §3

[8] = water, nacl 0.15m, dans l'eau, NaCl 0,15M, reference molecules entered in the database used for the prediction
[9] = function NH^+/N (pyrimidine motif), pKa in water, NaCl 0.15M, obtained from the solvent pKa by a polynomial function
[10] = Emulsion démaquillante huile dans eau + 0.25% compound
[11] = Emulsion eau dans huile + 0.250% compound

| SMILES | MIC (Pseudomonas aeruginosa [1]) | MIC (Candida albicans [2]) | MIC (Escherichia coli [3]) | MIC (Staphylococcus aureus) | also measured |
| --- | --- | --- | --- | --- | --- |
| CO[Si](C)(C)CCCCNc1cc(C)nc(N)n1 [Composé A, 4-N-[4-(méthoxy-dimethylsilyl)-butyl]-6-methyl-pyrimidine - 2,4-diamine] | 156 µg/mL (≈ 0.581 mM) | 156 µg/mL (≈ 0.581 mM) | 78 µg/mL (≈ 0.291 mM) | 78 µg/mL (≈ 0.291 mM) |  |
| Cc1cc(NCC(C)(C)N)nc(N)n1 [Composé G, N4-(2-amino-2-methyl-propyl)-6-methyl-pyrimidine-2,4-diamine] | 2500 µg/mL (≈ 12.8 mM) | 2500 µg/mL (≈ 12.8 mM) | 2500 µg/mL (≈ 12.8 mM) | 5000 µg/mL (≈ 25.6 mM) |  |
| Cc1cc(NC[C@@H]2CCCN2)nc(N)n1 [Composé C] | 5000 µg/mL (≈ 24.1 mM) | 2500 µg/mL (≈ 12.1 mM) | 5000 µg/mL (≈ 24.1 mM) | 2500 µg/mL (≈ 12.1 mM) |  |
| Cc1cc(NCC2CCCC(CN)C2)nc(N)n1 (stereo not drawn) [Composé L, 4-N-(3-aminomethyl-cyclohexylmethyl)-6-methyl-pyrimidine-2,4-diamine] | 2500 µg/mL (≈ 10 mM) | 1250 µg/mL (≈ 5.01 mM) | 2500 µg/mL (≈ 10 mM) | 2500 µg/mL (≈ 10 mM) |  |
| Cc1cc(NCCN2CCNCC2)nc(N)n1 [Composé H, 4-N-(2-piperazin-1-yl-ethyl)-6-methyl-pyrimidine – 2,4-diamine] | 5000 µg/mL (≈ 21.2 mM) | 2500 µg/mL (≈ 10.6 mM) | 2500 µg/mL (≈ 10.6 mM) | 1250 µg/mL (≈ 5.29 mM) |  |
| Cc1cc(NCc2ccco2)nc(N)n1 [Comparatif (DE 3717480), reference compound] | > 10000 µg/mL | > 10000 µg/mL | > 10000 µg/mL | 626 µg/mL (≈ 3.06 mM) |  |
| Cc1cc(N2CCN(CCN(C)C)CC2)nc(N)n1 [Composé F, 4-[4-(2-dimethylamino-ethyl)-piperazin-1-yl]-6-methyl-pyrimidin-2-ylamine] | > 5000 µg/mL | 5000 µg/mL (≈ 18.9 mM) | 2500 µg/mL (≈ 9.46 mM) | 5000 µg/mL (≈ 18.9 mM) |  |
| Cc1cc(N2CCN(c3ncccn3)CC2)nc(N)n1 [Composé K, 4-methyl-6-(4-pyrimidin-2-yl-piperazin-1-yl)-pyrimidin-2-ylamine] | > 5000 µg/mL | 625 µg/mL (≈ 2.3 mM) | 2500 µg/mL (≈ 9.21 mM) | 5000 µg/mL (≈ 18.4 mM) |  |
| COc1cccc(Nc2cc(C)nc(N)n2)c1 [reference compound] | > 5000 µg/mL | 1250 µg/mL (≈ 5.43 mM) | > 5000 µg/mL | > 5000 µg/mL |  |
| Cc1cc(N2CCN(C3CCN(C)CC3)CC2)nc(N)n1 [Composé J, 4-methyl-6-[4-(1-methyl-piperidin-4-yl)-piperazin-1-yl]-pyrimidin-2-ylamine] | > 5000 µg/mL | 5000 µg/mL (≈ 17.2 mM) | 2500 µg/mL (≈ 8.61 mM) | 5000 µg/mL (≈ 17.2 mM) |  |
| Cc1cc(N2CCCN(CCCN3CCCC3)CC2)nc(N)n1 [Composé D, 4-methyl-6-[4-(3-pyrrolidin-1-yl-propyl)-[1,4]diazepan-1-yl]-pyrimidin-2-ylamine] | > 5000 µg/mL |  | 5000 µg/mL (≈ 15.7 mM) | 5000 µg/mL (≈ 15.7 mM) |  |
| Cc1cc(N2CCc3cc(O)c(O)cc3C2)nc(N)n1 [Composé E, 2-(2-amino-6-methyl-pyrimidin-4-yl)-1,2,3,4-tetrahydro-isoquinoline-6,7-diol] | 5000 µg/mL (≈ 18.4 mM) | 1250 µg/mL (≈ 4.59 mM) | 625 µg/mL (≈ 2.3 mM) | 1250 µg/mL (≈ 4.59 mM) |  |
| Nc1ncccn1 [2-aminopyrimidine, reference compound] |  |  |  |  | pKa [4, 8]: 3.9 |
| Nc1nc(N2CCCCC2)cc(C(F)(F)F)n1 [Comparatif (DE 19917784), reference compound] | > 5000 µg/mL | > 5000 µg/mL | > 5000 µg/mL | > 5000 µg/mL |  |
| Cc1cc(N2CCCCC2)nc(N)n1 [Composé M, 4-methyl-6-pipéridine-1-yl-pyrimidine-2-ylamine] | 5000 µg/mL (≈ 26 mM) | 625 µg/mL (≈ 3.25 mM) | 5000 µg/mL (≈ 26 mM) | 5000 µg/mL (≈ 26 mM) | pKa [4, 9]: 8.35; Nombre d'UFC / gramme de produit après 7 jours de contact germes / produit (Pseudomonas aeruginosa [5]; [10]): <200 UFC / gramme de produit; Nombre d'UFC / gramme de produit après 7 jours de contact germes / produit (Pseudomonas aeruginosa [5]; [11]): <200 UFC / gramme de produit; Nombre d'UFC / gramme de produit après 7 jours de contact germes / produit (Pseudomonas aeruginosa [5]; Lotion + 0.25% compound): <200 UFC / gramme de produit; Nombre d'UFC / gramme de produit après 7 jours de contact germes / produit (Candida albicans [6]; [10]): <200 UFC / gramme de produit; Nombre d'UFC / gramme de produit après 7 jours de contact germes / produit (Candida albicans [6]; [11]): <200 UFC / gramme de produit; Nombre d'UFC / gramme de produit après 7 jours de contact germes / produit (Candida albicans [6]; Lotion + 0.25% compound): <200 UFC / gramme de produit; Nombre d'UFC / gramme de produit après 7 jours de contact germes / produit (Aspergillus niger; [11]): 400 UFC / gramme de produit; Nombre d'UFC / gramme de produit après 7 jours de contact germes / produit (Aspergillus niger; Lotion + 0.25% compound): 400 UFC / gramme de produit; Nombre d'UFC / gramme de produit après 7 jours de contact germes / produit (Escherichia coli [7]; [10]): <200^2 UFC / gramme de produit; Nombre d'UFC / gramme de produit après 7 jours de contact germes / produit (Escherichia coli [7]; [11]): <200^2 UFC / gramme de produit; Nombre d'UFC / gramme de produit après 7 jours de contact germes / produit (Escherichia coli [7]; Lotion + 0.25% compound): <200^2 UFC / gramme de produit; Nombre d'UFC / gramme de produit après 7 jours de contact germes / produit (Enterococcus faecalis; [10]): <200 UFC / gramme de produit; Nombre d'UFC / gramme de produit après 7 jours de contact germes / produit (Enterococcus faecalis; Lotion + 0.25% compound): 400 UFC / gramme de produit |
| Cc1cc(NCC2CCNCC2)nc(N)n1 [Composé B, 4-N-[4-piperidinylmethyl]-6-methyl-pyrimidine-2,4-diamine] | 250 µg/mL (≈ 1.13 mM) | 5000 µg/mL (≈ 22.6 mM) | 1250 µg/mL (≈ 5.65 mM) | 2500 µg/mL (≈ 11.3 mM) |  |
| Cc1cc(NCc2ccc(C)o2)nc(N)n1 [Composé I, 4-N-(5-methyl-furan-2-ylmethyl)---6-methyl-pyrimidine – 2,4-diamine] | 2500 µg/mL (≈ 11.5 mM) | 625 µg/mL (≈ 2.86 mM) | 1250 µg/mL (≈ 5.73 mM) | 625 µg/mL (≈ 2.86 mM) |  |
| Nc1ccncn1 [4-aminopyrimidine, reference compound] |  |  |  |  | pKa [4, 8]: 6 |
| CCCCCCNc1cc(C)nc(N)n1 [Composé N, 4-N-Hexyl-6-methyl-pyrimidine-2,4-diamine] | 2500 µg/mL (≈ 12 mM) | 160 µg/mL (≈ 0.768 mM) | 310 µg/mL (≈ 1.49 mM) | 630 µg/mL (≈ 3.02 mM) | pKa [4, 9]: 8.35 |
